Results taken from patent publication US9499550B2 (BRISTOL-MYERS SQUIBB COMPANY, priority 2012, dated 2016).
Like-named read-outs stand apart in the source and are kept apart here.

Key:
[1] = system: HCV genotype 1b (Con1) replicon in HUH-7 cells; assay: HCV replicon luciferase reporter assay, genotype 1b; assay type: cell-based; details: Hepatitis C virus, Huh-7, 72 h, 3 days incubation, read-out: LE_1b (EC50, range)
Summary of the method: (§1)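 Replicon inhibition for both genotypes was measured as Renilla luciferase signal (EnduRen, 7.5 μM final, 2 h) after 3-day, 37° C exposure of replicon-bearing HUH-7 cells in 4% FCS DMEM, 0.5% DMSO. The 1b construct carries S1179I; the 1a H77 construct carries P1496L and S2204I. Twenty-point, 3-fold dilutions were fitted four-parametrically for EC50, and CC50 was taken from multiplexed Cell Titer-Blue.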

[2] = system: HCV genotype 1a (H77 strain) replicon in HUH-7 cells; assay: HCV replicon luciferase reporter assay, genotype 1a; assay type: cell-based; details: Hepatitis C virus, Huh-7, 72 h, 3 days incubation, read-out: LE_1a (EC50, range)
Summary of the method: as §1

[3] = GETYPE1B, HCV genotype 1b replicon luciferase
[4] = GETYPE1A, HCV genotype 1a replicon luciferase
[5] = HCV genotype 1b replicon luciferase assay, range class
[6] = HCV genotype 1a replicon luciferase assay, range class
[7] = HCV genotype 1b replicon luciferase
[8] = HCV genotype 1a replicon luciferase

Row | Compound | EC50 [1, 5] | EC50 [2, 6] | EC50 [1, 7] | EC50 [2, 8] | other results
1 | CCOc1cnc(O[C@@H]2C[C@H]3C(=O)N[C@]4(C(=O)NS(=O)(=O)C5(C)CC5)C[C@H]4/C=C\CC[C@@H](C)C[C@@H](CC)[C@H](NC(=O)OC(C)(C)C(F)(F)F)C(=O)N3C2)c2ccc(OC)cc12 [Compound 4227] |  |  |  |  | EC50 [1, 3]: < 5.46 nM; EC50 [2, 4]: < 5.46 nM
2 | COc1ccc2c(O[C@@H]3C[C@H]4C(=O)N[C@]5(C(=O)NS(=O)(=O)C6(CF)CC6)C[C@H]5/C=C\CC[C@@H](C)C[C@@H](C)[C@H](NC(=O)O[C@H](C)C(F)(F)F)C(=O)N4C3)nc(N(C)C)cc2c1 [Compound 3128, (R)-1,1,1-trifluoropropan-2-yl((2R,6S,7R,9R,13aS,14aR,16aS,Z)-2-((3-(dimethylamino)-6-methoxyisoquinolin-1-yl)oxy)-14a-(((1-(fluoromethyl)cyclopropyl)sulfonyl)carbamoyl)-7,9-dimethyl-5,16-dioxo-1,2,3,5,6,7,8,9,10,11,13a,14,14a,15,16,16a-hexadecahydrocyclopropa[e]pyrrolo[1,2-a][1,4]diazacyclopentadecin-6-yl)carbamate] | < 5.46 nM | 4.82 to 103 nM |  |  | 
3 | CC[C@@H]1C[C@H](C)CC/C=C\[C@@H]2C[C@@]2(C(=O)NS(=O)(=O)C2(C)CC2)NC(=O)[C@@H]2C[C@@H](Oc3nccc4c5c(ccc34)N(C)CCO5)CN2C(=O)[C@H]1NC(=O)OC(C)(C)C [Compound 5330, tert-butyl ((2R,6S,7R,9R,13aS,14aR,16aS,Z)-7-ethyl-9-methyl-2-((4-methyl-3,4-dihydro-2H-[1,4]oxazino[2,3-f]isoquinolin-7-yl)oxy)-14a-(((1-methylcyclopropyl)sulfonyl)carbamoyl)-5,16-dioxo-1,2,3,5,6,7,8,9,10,11,13a,14,14a,15,16,16a-hexadecahydrocyclopropa[e]pyrrolo[1,2-a][1,4]diazacyclopentadecin-6-yl)carbamate] |  |  | < 5.46 nM | < 5.46 nM | 
4 | CCCOc1cnc(O[C@@H]2C[C@H]3C(=O)N[C@]4(C(=O)NS(=O)(=O)C5CC5)C[C@H]4/C=C\CC[C@H](C)C[C@@H](C)[C@H](NC(=O)O[C@H](C)C(F)(F)F)C(=O)N3C2)c2ccccc12 [Compound 5094, (R)-1,1,1-trifluoropropan-2-yl((2R,6S,7R,9S,13aS,14aR,16aS,Z)-14a-((cyclopropylsulfonyl)carbamoyl)-7,9-dimethyl-5,16-dioxo-2-((4-propoxyisoquinolin-1-yl)oxy)-1,2,3,5,6,7,8,9,10,11,13a,14,14a,15,16,16a-hexadecahydrocyclopropa[e]pyrrolo[1,2-a][1,4]diazacyclopentadecin-6-yl)carbamate] |  |  | > 87.4 nM | > 87.4 nM | 
5 | COc1ccc2c(O[C@@H]3C[C@H]4C(=O)N[C@]5(C(=O)NS(=O)(=O)C6CC6)C[C@H]5/C=C\CC[C@@H](C)C[C@@H](C)[C@H](NC(=O)OCC5(C)CC5)C(=O)N4C3)nc(-c3ccc(OC(C)C)c(F)c3)cc2c1 [Compound 3066, (1-methylcyclopropyl)methyl ((2R,6S,7R,9R,13aS,14aR,16aS,Z)-14a-((cyclopropylsulfonyl)carbamoyl)-2-((3-(3-fluoro-4-isopropoxyphenyl)-6-methoxyisoquinolin-1-yl)oxy)-7,9-dimethyl-5,16-dioxo-1,2,3,5,6,7,8,9,10,11,13a,14,14a,15,16,16a-hexadecahydrocyclopropa[e]pyrrolo[1,2-a][1,4]diazacyclopentadecin-6-yl)carbamate] | < 5.46 nM | < 5.46 nM |  |  | 
6 | COc1ccc2c(O[C@@H]3C[C@H]4C(=O)N[C@]5(C(=O)NS(=O)(=O)C6CC6)C[C@H]5/C=C\CC[C@@H](C)C[C@@H](C)[C@H](NC(=O)OC(C)(C)C(F)(F)F)C(=O)N4C3)nc(-c3ccc(OC(C)C)cc3)nc2c1 [Compound 3022, 1,1,1-trifluoro-2-methylpropan-2-yl((2R,6S,7R,9R,13aS,14aR,16aS,Z)-14a-((cyclopropylsulfonyl)carbamoyl)-2-((2-(4-isopropoxyphenyl)-7-methoxyquinazolin-4-yl)oxy)-7,9-dimethyl-5,16-dioxo-1,2,3,5,6,7,8,9,10,11,13a,14,14a,15,16,16a-hexadecahydrocyclopropa[e]pyrrolo[1,2-a][1,4]diazacyclopentadecin-6-yl)carbamate] | < 5.46 nM | < 5.46 nM |  |  | 
7 | CC[C@@H]1C[C@H](C)CC/C=C\[C@@H]2C[C@@]2(C(=O)NS(=O)(=O)C2(C)CC2)NC(=O)[C@@H]2C[C@@H](Oc3nccc4cc(OC)c(Cl)cc34)CN2C(=O)[C@H]1NC(=O)OC(C)(C)C(F)(F)F [Compound 3222, 1,1,1-trifluoro-2-methylpropan-2-yl((2R,6S,7R,9R,13aS,14aR,16aS,Z)-2-((7-chloro-6-methoxyisoquinolin-1-yl)oxy)-7-ethyl-9-methyl-14a-(((1-methylcyclopropyl)sulfonyl)carbamoyl)-5,16-dioxo-1,2,3,5,6,7,8,9,10,11,13a,14,14a,15,16,16a-hexadecahydrocyclopropa[e]pyrrolo[1,2-a][1,4]diazacyclopentadecin-6-yl)carbamate] |  |  | 1.01 to 5 nM | 1.01 to 5 nM | 
8 | CC(C)n1nc(O[C@@H]2C[C@H]3C(=O)N[C@]4(C(=O)NS(=O)(=O)C5CC5)C[C@H]4/C=C\CC[C@@H](C)C[C@@H](C)[C@H](NC(=O)OC(C)(C)C)C(=O)N3C2)c2ccccc2c1=O [Compound 1002, tert-butyl ((2R,6S,7R,9R,13aS,14aR,16aS,Z)-14a-((cyclopropylsulfonyl)carbamoyl)-2-((3-isopropyl-4-oxo-3,4-dihydrophthalazin-1-yl)oxy)-7,9-dimethyl-5,16-dioxo-1,2,3,5,6,7,8,9,10,11,13a,14,14a,15,16,16a-hexadecahydrocyclopropa[e]pyrrolo[1,2-a][1,4]diazacyclopentadecin-6-yl)carbamate] | 4.82 to 103 nM | > 87.4 nM |  |  | 
9 | COc1ccc2c(O[C@@H]3C[C@H]4C(=O)N[C@]5(C(=O)NS(=O)(=O)C6CC6)C[C@H]5/C=C\CC[C@@H](C)C[C@@H](C)[C@H](NC(=O)OC(C)(C)C(F)(F)F)C(=O)N4C3)ncnc2c1 [Compound 4034] |  |  |  |  | EC50 [1, 3]: < 5.46 nM; EC50 [2, 4]: < 5.46 nM
10 | CCOc1cnc(O[C@@H]2C[C@H]3C(=O)N[C@]4(C(=O)NS(=O)(=O)C5(C)CC5)C[C@H]4/C=C\CC[C@@H](C)C[C@@H](C)[C@H](NC(=O)OC(C)(C)C)C(=O)N3C2)c2ccc(OC)cc12 [Compound 4136, tert-butyl (2R,6S,7R,9R,13aS,14aR,16aS,Z)-2-(4-ethoxy-6-methoxyisoquinolin-1-yloxy)-7,9-dimethyl-14a-(1-methylcyclopropylsulfonylcarbamoyl)-5,16-dioxo-1,2,3,5,6,7,8,9,10,11,13a,14,14a,15,16,16a-hexadecahydrocyclopropa[e]pyrrolo[1,2-a][1,4]diazacyclopentadecin-6-ylcarbamate] |  |  | < 5.46 nM | < 5.46 nM | 
11 | COc1cc2cc(F)ccc2c(O[C@@H]2C[C@H]3C(=O)N[C@]4(C(=O)NS(=O)(=O)C5(CF)CC5)C[C@H]4/C=C\CC[C@@H](C)C[C@@H](C)[C@H](NC(=O)OC(C)(C)C(F)(F)F)C(=O)N3C2)n1 [Compound 3214, 1,1,1-trifluoro-2-methylpropan-2-yl((2R,6S,7R,9R,13aS,14aR,16aS,Z)-2-((6-fluoro-3-methoxyisoquinolin-1-yl)oxy)-14a-(((1-(fluoromethyl)cyclopropyl)sulfonyl)carbamoyl)-7,9-dimethyl-5,16-dioxo-1,2,3,5,6,7,8,9,10,11,13a,14,14a,15,16,16a-hexadecahydrocyclopropa[e]pyrrolo[1,2-a][1,4]diazacyclopentadecin-6-yl)carbamate] |  |  | 0.1 to 0.5 nM | 1.01 to 5 nM | 
